The values that follow come from the supplement of paper PMC5579334.

Test [1] concerns HS-PSS. In words: relative IC50 (inflection point of fitted dose-response curve, CellTiter-Glo viability, 72 h; top asymptote may be below 50% inhibition); higher = less potent. The method, boiled down: (§1)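 For this screen, 384-well plates were preprinted with each compound at five concentrations in 10-fold steps and seeded with MPNST cell lines or primary human Schwann cells at 750–1000 cells per well. Incubation lasted 72 h at 37 °C, 5% CO2, and CellTiter-Glo ATP luminescence, scaled between vehicle and positive-control wells and averaged over duplicates where available, served as viability. Logistic fits with four parameters were applied. Relative IC50 (censored at the top concentration) and drug sensitivity score derive from these fits, and percent inhibition is at the top concentration.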
(In ATP-based viability assays light output follows the ATP content of the culture.)

Test [2] has as its system HS-Sch-2. Described as above. The method, boiled down:
as §1

Test [3] concerns YST-1. The test is described as above. Put shortly: as §1
Test [4] deals with HS-PSS. Description: relative IC50 (inflection point of fitted dose-response curve, CellTox-Green cytotoxicity, 72 h; top asymptote may be below 50%); higher = less potent. Put shortly:
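MPNST cell lines and primary human Schwann cells were grown for 72 h at 37 °C in 384-well plates containing five 10-fold compound dilutions. CellTox-Green, added before seeding at a final 1:1000 dilution, gave fluorescence from DNA released by disrupted cells, and signals were scaled to vehicle and positive-control wells. Curves were fitted with a four-parameter logistic model. Drug sensitivity score and relative IC50 come from these fits, with IC50 censored at the top concentration.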

The relative IC50 is the concentration halfway between the upper and lower plateau of the fitted curve. As for `CC(=O)NCC(=O)N1[C@@H]2CC[C@H]1c1ccc(Nc3ncc(C(F)(F)F)c(NC4CCC4)n3)cc12`, the results for the “relative IC50” value in test [1], in test [2] and in test [3] were 960 nM, 946 nM and 749 nM, respectively.

For the compound `CC(C)(C)C[C@@H]1N[C@@H](C(=O)N[C@H]2CC[C@H](O)CC2)[C@H](c2cccc(Cl)c2F)[C@]12C(=O)Nc1cc(Cl)ccc12`, the results for the “relative IC50” value in test [4], in test [1] and in test [3] were above 10000 nM, 3280 nM and 140 nM, respectively.

On to `CC(C)CC(=O)Nc1n[nH]c2c1CN(C(=O)C1CCN(C)CC1)C2(C)C`, for which the figures for the “relative IC50” value in test [1], in test [2] and in test [3] were 604 nM, 1290 nM and 859 nM, respectively.

`CC(C)Oc1ccc(C(=O)N[C@H](CNC(=O)CN(C)C)Cc2ccc(-c3cn4cccc([C@H](C)O)c4n3)cc2)cc1Cl`: the “relative IC50” value in test [1] was 757 nM; in test [2], 72.3 nM; in test [3] it was 75.4 nM.

For the compound `CCc1cc(Nc2nccc(-c3c(-c4ccc(OC)c(C(=O)Nc5c(F)cccc5F)c4)nc4ccccn34)n2)c(OC)cc1N1CCC(N2CCN(S(C)(=O)=O)CC2)CC1`, the “relative IC50” value in test [4] was above 10000 nM; in test [1], above 10000 nM; in test [3], 31.2 nM.

Consider `CN(c1ncccc1CNc1nc(Nc2ccc3c(c2)CC(=O)N3)ncc1C(F)(F)F)S(C)(=O)=O`, for which the “relative IC50” value came to 3340 nM in test [1], 3410 nM in test [2] and 2010 nM in test [3].

On to `CNC(=O)c1c(F)cccc1Nc1nc(Nc2cc3c(cc2OC)CCN3C(=O)CN(C)C)nc2[nH]ccc12`, for which the “relative IC50” value was 32.1 nM in test [1] and 73 nM in test [3].

As to `CNc1nc(-c2ccc3c(N)n[nH]c3c2)cc(N2C[C@@H](C(=O)NC3CCCCC3)CC[C@H]2C)n1`, the “relative IC50” value in test [4] was above 10000 nM; in test [1] it was 3050 nM; in test [3] it was 585 nM.

As for `COCC(=O)NC/C=C/c1ccc2ncnc(Nc3ccc(Oc4ccc(C)nc4)c(C)c3)c2c1`, the entries for the “relative IC50” value in test [4], in test [1] and in test [2] were above 10000 nM, 1540 nM and 1250 nM, respectively.

As to `COc1cc2ncnc(Oc3cccc(NC(=O)Nc4cc(C(C)(C)C(F)(F)F)on4)c3)c2cc1OC`, the “relative IC50” value in test [4], in test [1] and in test [2] was above 10000 nM throughout.

Regarding `C[C@H]1Oc2cc(cnc2N)-c2c(nn(C)c2C#N)CN(C)C(=O)c2ccc(F)cc21`, the entries for the “relative IC50” value in test [4], in test [1] and in test [3] were above 1000 nM, 10.7 nM and above 1000 nM, respectively.

Consider `Cc1ccc2nc(CN(CCN(Cc3nc4ccc(C)cc4[nH]3)Cc3nc4ccc(C)cc4[nH]3)Cc3nc4ccc(C)cc4[nH]3)[nH]c2c1`, for which the “relative IC50” value in test [1] is 7700 nM; in test [2] it was 8240 nM; in test [3], 7770 nM.

In the case of `O=C1c2ccccc2-c2n[nH]c3cccc1c23`, the “relative IC50” value in test [1] was 13300 nM; in test [2] it was 13900 nM; in test [3], 20100 nM.

As to `CN(C)C(=O)c1ccc(S(=O)(=O)c2ccc(NC(=O)[C@@](C)(O)C(F)(F)F)c(Cl)c2)cc1` [AZD7545], the “relative IC50” value in test [4] was above 10000 nM; in test [1], 3910 nM; in test [3], above 10000 nM.

Regarding `Cc1cc([C@@H](C)Nc2ccccc2C(=O)O)c2nc(N3CCOCC3)cc(=O)n2c1` [AZD-6482], the “relative IC50” value in test [4], in test [1] and in test [2] was above 2500 nM in each case.

With `CCc1cc2c(cc1N1CCC(N3CCOCC3)CC1)C(C)(C)c1[nH]c3cc(C#N)ccc3c1C2=O` [Alectinib], the “relative IC50” value in test [4] was above 1000 nM; in test [1], 34.8 nM; in test [2], above 1000 nM.

Turning to `Cc1cc(-c2nc(-c3ccc(OC(F)(F)F)cc3)no2)nn1Cc1ccnc(N2CCN(C3CC3)CC2)c1` [BAY 87-2243], the entries for the “relative IC50” value in test [4], in test [1] and in test [2] were above 1000 nM, 0.66 nM and 0.63 nM, respectively.

Regarding `Cc1ccc(NC(=O)c2ccc(CN3CC[C@H](N(C)C)C3)c(C(F)(F)F)c2)cc1Nc1nccc(-c2cncnc2)n1` [Bafetinib], the entries for the “relative IC50” value in test [4], in test [1] and in test [3] were above 1000 nM, above 1000 nM and 259 nM, respectively.

As to `Cn1cnc2c(F)c(Nc3ccc(Br)cc3F)c(C(=O)NOCCO)cc21` [Binimetinib], the “relative IC50” value in test [4], in test [1] and in test [3] was above 1000 nM throughout.

As to `CCN(CC)CCN(Cc1ccc(-c2ccc(C(F)(F)F)cc2)cc1)C(=O)Cn1c(SCc2ccc(F)cc2)nc(=O)c2c1CCC2` [Darapladib], the “relative IC50” value in test [4] stood at 250 nM; in test [1], 224 nM; in test [2], 192 nM.
